Experimental findings from ChEMBL document CHEMBL1201862, “PubChem BioAssay data set” (2004) are described below.

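48-hour exposure; five concentrations; linearly interpolated endpoints. Abbreviation: GI50, concentration required for 50% inhibition of growth.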 Activity calls are given as the source filed them. Cut-off read from the data, not from the text of the source: active = GI50 up to about 1.1 µM and inactive = higher. Some results are limits rather than exact numbers.

Among the test systems are SW-620; OVCAR-8; MCF7; 786-0; HT-29; A549; SK-MEL-2; OVCAR-5; HL-60; SN12C; KM12; CCRF-CEM; M14; LOX IMVI; ACHN; HOP-92; CAKI-1; Hs-578T; MDA-MB-231; NCI-H226.
Common to all, as to test: NCI tumour cell line growth inhibition, 48 h

As to `O=c1ccc2nc3ccc(O)cc3oc-2c1`, the GI50 with SW-620 was 13.2 µM (inactive); with OVCAR-8, 16.4 µM (inactive); with MCF7 it was 5.07 µM (inactive); in the assay on 786-0, 13.4 µM (inactive); in the assay with HT-29, 24 µM (inactive); in the assay with A549, 4.27 µM (inactive). The GI50 in the assay with SK-MEL-2 is 12.8 µM (inactive); with OVCAR-5, > 100 µM (inactive); in the assay on HL-60, 10.5 µM (inactive); with SN12C, > 100 µM (inactive); in the assay on KM12 it was 5.6 µM (inactive); in the assay on CCRF-CEM, 34 µM (inactive). The GI50 in the assay with M14 is 4.3 µM (inactive); in the assay with LOX IMVI, 2.75 µM (inactive); with ACHN it was 8.11 µM (inactive); with HOP-92, > 100 µM (inactive); in the assay with CAKI-1 it was > 67.9 µM (inactive); in the assay on Hs-578T, 6.92 µM (inactive). The GI50 with MDA-MB-231 is > 100 µM (inactive); with NCI-H226, 27.8 µM (inactive).

Take `O=C(O)c1cccc(S(=O)(=O)NCCO)c1`: the GI50 in the assay on SW-620, in the assay on OVCAR-8, in the assay with MCF7, in the assay on 786-0, in the assay with HT-29 and with A549 was > 100 µM (inactive) in each case. In addition, the GI50 with SK-MEL-2, in the assay with OVCAR-5, in the assay with HL-60, in the assay with SN12C, with KM12 and in the assay with CCRF-CEM was > 100 µM (inactive) throughout. The GI50 in the assay on M14, in the assay on LOX IMVI, in the assay with ACHN, in the assay with HOP-92, in the assay on CAKI-1 and in the assay with Hs-578T was > 100 µM (inactive) each time. For the same compound, the GI50 with MDA-MB-231 and in the assay with NCI-H226 was > 100 µM (inactive) throughout.

On to `O=C(O)CCSCc1ccc(I)cc1`, for which the GI50 in the assay with SW-620, with OVCAR-8, in the assay on MCF7, in the assay with 786-0, in the assay on HT-29 and in the assay with A549 was > 100 µM (inactive) throughout. Besides, the GI50 in the assay on SK-MEL-2, in the assay with OVCAR-5, with HL-60, in the assay with SN12C, in the assay with KM12 and with CCRF-CEM was > 100 µM (inactive) throughout. The GI50 with M14, with LOX IMVI, in the assay on ACHN, with HOP-92, in the assay with CAKI-1 and in the assay with Hs-578T was > 100 µM (inactive) throughout. In addition, the GI50 with MDA-MB-231 and in the assay on NCI-H226 was > 100 µM (inactive) each time.

On to `CN(C)CCNC(=O)c1cccc2nc3c4ccccc4c4ccccc4c3nc12`, for which the GI50 was 1.58 µM (inactive) with SW-620; 2.02 µM (inactive) in the assay with OVCAR-8; 1.14 µM (inactive) in the assay on MCF7; 2.28 µM (inactive) in the assay with 786-0; 1.51 µM (inactive) with HT-29; 2.74 µM (inactive) in the assay on A549. For the same compound, the GI50 in the assay on SK-MEL-2 is 3.22 µM (inactive); in the assay on OVCAR-5 it was 7.67 µM (inactive); in the assay with HL-60, 1.76 µM (inactive); in the assay with SN12C, 1.92 µM (inactive); in the assay on KM12, 1.56 µM (inactive); in the assay with CCRF-CEM, 1.13 µM (inactive). For the same compound, the GI50 was 2.29 µM (inactive) in the assay on M14; 1.64 µM (inactive) in the assay on LOX IMVI; 5.01 µM (inactive) in the assay with ACHN; 7.82 µM (inactive) in the assay on HOP-92; 17.6 µM (inactive) with CAKI-1; 1.31 µM (inactive) with Hs-578T. Besides, the GI50 was 1.82 µM (inactive) in the assay with MDA-MB-231 and 9.86 µM (inactive) in the assay with NCI-H226.

`Cc1ccc(C(=O)C(Cl)C(Cl)c2ccc(C)cc2)cc1` (stereo not given): the GI50 in the assay on SW-620 is 2.39 µM (inactive); with OVCAR-8, 2.72 µM (inactive); in the assay on MCF7, 4.56 µM (inactive); in the assay on 786-0, 2.03 µM (inactive); in the assay with HT-29, 2.12 µM (inactive); with A549, 21.9 µM (inactive). Besides, the GI50 in the assay on SK-MEL-2 is 16.3 µM (inactive); in the assay with OVCAR-5, 7.87 µM (inactive); in the assay on HL-60, 1.24 µM (inactive); in the assay with SN12C, 1.82 µM (inactive); in the assay on KM12, 3.68 µM (inactive); in the assay on CCRF-CEM, 0.622 µM (active). Further, the GI50 is 4.71 µM (inactive) with M14; 1.87 µM (inactive) with LOX IMVI; 1.72 µM (inactive) in the assay with ACHN; 2.4 µM (inactive) in the assay on HOP-92; 2.59 µM (inactive) in the assay on CAKI-1; 21.8 µM (inactive) in the assay on Hs-578T. Besides, the GI50 was 5.14 µM (inactive) in the assay with MDA-MB-231 and 5.04 µM (inactive) in the assay with NCI-H226.

Take `COc1cc(C(C[N+](=O)[O-])SC(C)=O)ccc1OCc1ccccc1` (stereo not given): the GI50 is 3.13 µM (inactive) with SW-620; 5.9 µM (inactive) with OVCAR-8; 2.38 µM (inactive) with MCF7; 1.79 µM (inactive) in the assay on 786-0; 2.4 µM (inactive) with HT-29; 9.33 µM (inactive) in the assay on A549. Besides, the GI50 is 7.59 µM (inactive) with SK-MEL-2; 14.8 µM (inactive) in the assay with OVCAR-5; 0.261 µM (active) in the assay with HL-60; 4.17 µM (inactive) with SN12C; 4.85 µM (inactive) in the assay with KM12; 1.18 µM (inactive) with CCRF-CEM. The GI50 with M14 is 4.89 µM (inactive); in the assay on LOX IMVI, 1.43 µM (inactive); in the assay on ACHN, 9.55 µM (inactive); in the assay on HOP-92 it was 18.9 µM (inactive); with CAKI-1, 12 µM (inactive); in the assay on Hs-578T, 3.31 µM (inactive). For the same compound, the GI50 in the assay with MDA-MB-231 is 4.93 µM (inactive); with NCI-H226, 7.91 µM (inactive).

As to `COc1cccc2c1C(=O)c1c(O)c3c(c(O)c1C2=O)C[C@@](O)(C(=O)CO)CC3OC1CC(N)C(OC2CCCCO2)C(C)O1` (stereo not given in full), the GI50 was 0.265 µM (active) in the assay with SW-620; 0.35 µM (active) in the assay with OVCAR-8; 0.001 µM (active) in the assay on MCF7; 0.272 µM (active) in the assay with 786-0; 0.853 µM (active) in the assay with HT-29; 0.256 µM (active) in the assay on A549. In addition, the GI50 in the assay with SK-MEL-2 is 1.85 µM (inactive); in the assay with OVCAR-5, 1.71 µM (inactive); in the assay on HL-60, 0.207 µM (active); with SN12C, 1.27 µM (inactive); in the assay with KM12, 0.0399 µM (active); with CCRF-CEM, 0.168 µM (active). Also, the GI50 in the assay on M14 is 1.2 µM (inactive); with LOX IMVI it was 0.356 µM (active); in the assay with ACHN, 0.24 µM (active); with HOP-92 it was 0.0715 µM (active); in the assay with CAKI-1, 0.916 µM (active); with Hs-578T it was 0.164 µM (active). Further, the GI50 is 0.0802 µM (active) in the assay on MDA-MB-231 and 0.419 µM (active) in the assay on NCI-H226.

As to `COC1=C2CC(C)CC(OC)C(OC(=O)CN)[C@H](C)/C=C(\C)C(OC(N)=O)C(OC)/C=C\C=C(/C)C(=O)NC(=CC1=O)C2=O` (stereo not given in full), the GI50 was 0.065 µM (active) in the assay with SW-620; 0.94 µM (active) in the assay with OVCAR-8; 0.339 µM (active) in the assay with MCF7; 0.429 µM (active) with 786-0; 0.306 µM (active) in the assay with HT-29; 9.73 µM (inactive) in the assay with A549. In addition, the GI50 in the assay on SK-MEL-2 was 3.84 µM (inactive); with OVCAR-5 it was 1.03 µM (active); with HL-60, 0.123 µM (active); in the assay with SN12C, 0.412 µM (active); with KM12, 1.24 µM (inactive); in the assay on CCRF-CEM it was 0.299 µM (active). Besides, the GI50 in the assay on M14 is 0.451 µM (active); in the assay on LOX IMVI, 0.284 µM (active); in the assay with ACHN, 0.446 µM (active); with HOP-92 it was 0.163 µM (active); in the assay on CAKI-1, 1.46 µM (inactive); in the assay on Hs-578T, 3.79 µM (inactive). Also, the figures for the GI50 with MDA-MB-231 and in the assay with NCI-H226 were 0.42 µM (active) and 10.4 µM (inactive), respectively.
